44 compounds from patent publication US10258603B2 (priority 2014, dated 2019) can be followed below.

The target of this experiment is T1, BRD9 (Homo sapiens, UniProt Q9H8M2).
T1 construct: 134-239 was cloned, expressed, and purified to homogeneity; Flag; made in house
T1 sequence (Q9H8M2 134-239 limits assumed): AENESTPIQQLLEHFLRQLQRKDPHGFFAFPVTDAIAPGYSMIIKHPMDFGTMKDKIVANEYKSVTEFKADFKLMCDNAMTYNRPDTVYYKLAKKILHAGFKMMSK
The experiment can be described thus: BRD9 AlphaLisa Binding Assay. The procedure: IC50 Measurements for Inhibitors Using BRD9 AlphaLisa Binding Assay His/Flag epitope tagged BRD9134-239 was cloned, expressed, and purified to homogeneity. […] After 20 minutes incubation at room temperature AlphaLisa Streptavidin Acceptor Beads (Perkin-A[…]) and AlphaLisa Nickel donor beads (Perkin AS 10 ID) were added to a final concentration of 15 ug/mL each.
For orientation: Alpha assays give light when donor and acceptor beads are brought close together.
Regarding `CN1CCCC1CCNC(=O)c1cn(C)c(=O)c2[nH]ccc12` (centres unmarked) [Example 7, 6-methyl-N-[2-(1-methylpyrrolidin-2-yl)ethyl]-7-oxo-1H-pyrrolo[2,3-c]pyridine-4-carboxamide], the half-maximal inhibitory concentration (IC50) (as a rule, the point on the concentration scale where inhibition reaches its midpoint) turned out to be 990 nM. In other words, the sub-micromolar range. As for `CC=CCn1cc(C(=O)NCCCN2CCN(C)CC2)c2cc[nH]c2c1=O` [Example 9, 6-but-2-enyl-N-[3-(4-methylpiperazin-1-yl)propyl]-7-oxo-1H-pyrrolo[2,3-c]pyridine-4-carboxamide], the figure is 920 nM. As to `CC=CCn1cc(C(=O)NCC2CCN(C)CC2)c2cc[nH]c2c1=O` [Example 11, 6-but-2-enyl-N-[(1-methyl-4-piperidyl)methyl]-7-oxo-1H-pyrrolo[2,3-c]pyridine-4-carboxamide], the IC50 is 5400 nM. The compound `CC=CCn1cc(C(=O)NCCN2CCN(C)CC2)c2cc[nH]c2c1=O` [Example 12, 6-but-2-enyl-N-[2-(4-methylpiperazin-1-yl)ethyl]-7-oxo-1H-pyrrolo[2,3-c]pyridine-4-carboxamide] displayed an IC50 of 840 nM. `CC=CCn1cc(C(=O)NC2(C)CCCCC2)c2cc[nH]c2c1=O` [Example 18, 6-but-2-enyl-N-(1-methylcyclohexyl)-7-oxo-1H-pyrrolo[2,3-c]pyridine-4-carboxamide] gave a half-inhibitory concentration (IC50) of 2100 nM. For `CC=CCn1cc(C(=O)NCCC2CCN(C(=O)OCc3ccccc3)C2)c2cc[nH]c2c1=O` (centres unmarked) [Example 19, benzyl 3-[2-[(6-but-2-enyl-7-oxo-1H-pyrrolo[2,3-c]pyridine-4-carbonyl)amino]ethyl]pyrrolidine-1-carboxylate], the IC50 was found to be 75 nM. `CN(C(=O)c1cn(C)c(=O)c2[nH]ccc12)C1CCN(Cc2ccccc2)C1` (centres unmarked) [Example 22, N-(1-benzylpyrrolidin-3-yl)-N,6-dimethyl-7-oxo-1H-pyrrolo[2,3-c]pyridine-4-carboxamide] yielded an IC50 of 7300 nM.

`CC1CC(C)CN(CCNC(=O)c2cn(C)c(=O)c3[nH]ccc23)C1` (centres unmarked) [Example 33, N-[2-(3.5-dimethyl-1-piperidyl)ethyl]-6-methyl-7-oxo-1H-pyrrolo[2,3-c]pyridine-4-carboxamide] returned an IC50 of 5400 nM.

With `CN1CCN(CCCNC(=O)c2cn(C)c(=O)c3[nH]ccc23)CC1` [Example 34, 6-methyl-N-[3-(4-methylpiperazin-1-yl)propyl]-7-oxo-1H-pyrrolo[2,3-c]pyridine-4-carboxamide], the 50% inhibitory concentration (IC50) came to 2200 nM. Consider `Cn1cc(C(=O)NC(C)(C)CN2CCOCC2)c2cc[nH]c2c1=O` [Example 35, N-(1,1-dimethyl-2-morpholino-ethyl)-6-methyl-7-oxo-1H-pyrrolo[2,3-c]pyridine-4-carboxamide], for which the concentration for half-maximal inhibition (IC50) amounted to 11000 nM. The compound `CN1CCN(C(=O)c2cn(C)c(=O)c3[nH]ccc23)CC1` [Example 38, 6-methyl-4-(4-methylpiperazine-1-carbonyl)-1H-pyrrolo[2,3-c]pyridin-7-one] had an IC50 of 8000 nM. This IC50 and that of the compound before are within 1.5-fold of each other. Consider `CC1CCCN(CCNC(=O)c2cn(C)c(=O)c3[nH]ccc23)C1` (centres unmarked) [Example 45, 6-methyl-N-[2-(3-methyl-1-piperidyl)ethyl]-7-oxo-1H-pyrrolo[2,3-c]pyridine-4-carboxamide], for which the IC50 amounted to 6100 nM. As for `Cn1cc(C(=O)N2CCCC2c2ccccc2)c2cc[nH]c2c1=O` (centres unmarked) [Example 85], the concentration for half-maximal inhibition (IC50) stood at 570 nM. `Cn1cc(C(=O)NCC2CCCCC2)c2cc[nH]c2c1=O` [Example 86] displayed an IC50 of 160 nM. `CN(Cc1ccccc1)C(=O)c1cn(C)c(=O)c2[nH]ccc12` [Example 87] returned a 50% inhibitory concentration (IC50) of 1000 nM. This IC50 is about 6.2-fold higher than that of the compound before. The compound `Cn1cc(C(=O)N2CCNc3ccccc3C2)c2cc[nH]c2c1=O` [Example 88] gave an IC50 of 1500 nM. Turning to `Cn1cc(C(=O)N2CCC(c3ccccc3)C2)c2cc[nH]c2c1=O` (centres unmarked) [Example 89], the concentration for half-maximal inhibition (IC50) came out at 4100 nM. Compound `Cn1cc(C(=O)N[C@H](C(N)=O)c2ccccc2)c2cc[nH]c2c1=O` [Example 90] came in with an IC50 of 300 nM. In turn, `Cn1cc(C(=O)NC(c2ccccc2)c2ccccc2)c2cc[nH]c2c1=O` [Example 91] yielded an IC50 of 200 nM. The same measure for `Cn1cc(C(=O)N[C@@H](C(N)=O)c2ccccc2)c2cc[nH]c2c1=O` [Example 97]: 490 nM; for `CC(C)[C@H](NC(=O)c1cn(C)c(=O)c2[nH]ccc12)C(N)=O` [Example 98]: 550 nM. In turn, `Cn1cc(C(=O)NCC2CCOC2)c2cc[nH]c2c1=O` (centres unmarked) [Example 102] displayed a half-inhibitory concentration (IC50) of 860 nM. As for `Cn1cc(C(=O)NCC2CCCCCC2)c2cc[nH]c2c1=O` [Example 103], the figure is 490 nM. With `Cn1cc(C(=O)NC2CCOC2)c2cc[nH]c2c1=O` (centres unmarked) [Example 104], the IC50 amounted to 980 nM. This IC50 lies about 2-fold higher than the previous one. In turn, `CC(NC(=O)c1cn(C)c(=O)c2[nH]ccc12)C1CC2CCC1C2` (centres unmarked) [Example 106] yielded a concentration for half-maximal inhibition (IC50) of 240 nM. This IC50 lies about 4.1-fold lower than the previous one. Consider `Cn1cc(C(=O)N[C@H](c2ccccc2)[C@@H](O)c2ccccc2)c2cc[nH]c2c1=O` [Example 107], for which the IC50 came out at 3400 nM. In turn, `Cn1cc(C(=O)NCC2COc3ccccc3C2)c2cc[nH]c2c1=O` (centres unmarked) [Example 108] gave an IC50 of 200 nM. This IC50 lies about 17-fold lower than the previous one.

Compound `Cn1cc(C(=O)NC2CCN(C(=O)OC(C)(C)C)C2)c2cc[nH]c2c1=O` (centres unmarked) [Example 109] returned a half-maximal inhibitory concentration (IC50) of 270 nM. This IC50 and that of the compound before are within 1.5-fold of each other. Regarding `Cn1cc(C(=O)NCC2Cc3ccccc3O2)c2cc[nH]c2c1=O` (centres unmarked) [Example 110], the concentration for half-maximal inhibition (IC50) was 850 nM. As for `Cn1cc(C(=O)NCC2COc3ccccc3O2)c2cc[nH]c2c1=O` (centres unmarked) [Example 111], the figure is 240 nM; as for `CC(NC(=O)c1cn(C)c(=O)c2[nH]ccc12)C1CC1` (centres unmarked) [Example 112], 460 nM. As to `Cn1cc(C(=O)NCc2cccc3ccccc23)c2cc[nH]c2c1=O` [Example 114], the 50% inhibitory concentration (IC50) turned out to be 73 nM.

Consider `CC(NC(=O)c1cn(C)c(=O)c2[nH]ccc12)c1ccncc1` (centres unmarked) [Example 115], for which the IC50 is 640 nM.

Consider `CC(NC(=O)c1cn(C)c(=O)c2[nH]ccc12)c1ccccc1Cl` (centres unmarked) [Example 118], for which the concentration for half-maximal inhibition (IC50) is 240 nM.

The compound `CC(NC(=O)c1cn(C)c(=O)c2[nH]ccc12)c1ccc2c(c1)OCCO2` (centres unmarked) [Example 120] yielded an IC50 of 440 nM. Against the preceding compound, the IC50 is about 1.8-fold higher.

As for `Cn1cc(C(=O)NC2COCc3ccccc32)c2cc[nH]c2c1=O` (centres unmarked) [Example 121], the IC50 was 100 nM. In turn, `Cc1cc(CC(C)NC(=O)c2cn(C)c(=O)c3[nH]ccc23)on1` (centres unmarked) [Example 122] displayed an IC50 of 2200 nM. `Cn1cc(C(=O)NC2COCC2c2ccc(F)cc2)c2cc[nH]c2c1=O` (centres unmarked) [Example 124] had an IC50 of 2900 nM.

Take `Cn1cc(C(=O)NC2CCCc3ccccc32)c2cc[nH]c2c1=O` (centres unmarked) [Example 125]: the half-maximal inhibitory concentration (IC50) was found to be 130 nM.

`CC(NC(=O)c1cn(C)c(=O)c2[nH]ccc12)c1ccc(F)cc1` (centres unmarked) [Example 129] came in with an IC50 of 220 nM. As for `Cn1cc(C(=O)NC(C)(C)c2ccccc2)c2cc[nH]c2c1=O` [Example 131], the figure is 1600 nM. In turn, `Cn1cc(C(=O)NCC2CN(C(=O)OC(C)(C)C)CCO2)c2cc[nH]c2c1=O` (centres unmarked) [Example 134] registered a concentration for half-maximal inhibition (IC50) of 280 nM. Take `Cn1cc(C(=O)NCC2CCCN2C(=O)OC(C)(C)C)c2cc[nH]c2c1=O` (centres unmarked) [Example 136, tert-butyl 2-[[(6-methyl-7-oxo-1H-pyrrolo[2,3-c]pyridine-4-carbonyl)amino]methyl]pyrrolidine-1-carboxylate]: the concentration for half-maximal inhibition (IC50) came out at 400 nM. The compound `Cn1cc(C(=O)NC2CCCN(C(=O)OC(C)(C)C)C2)c2cc[nH]c2c1=O` (centres unmarked) [Example 138] gave a 50% inhibitory concentration (IC50) of 310 nM. This IC50 and that of the compound before are within 1.5-fold of each other.
